Results as given in US10544147B2, “Purine inhibitors of human phosphatidylinositol 3-kinase delta” (MERCK SHARP & DOHME CORP., priority 2016, dated 2020).

Key:
PI3Kalpha = PI3Kalpha (Homo sapiens (Human), UniProt P42336); experiment: HTRF PI3K biochemical assay, alpha isoform (selectivity versus delta); details: ratio PI3K-alpha IC50 value/PI3K-delta IC50 value
PI3Kdelta = PI3Kdelta (Homo sapiens (Human), UniProt O00329); experiment: HTRF PI3K biochemical assay, delta isoform; details: 0.3 nM enzyme, 100 uM ATP, 50 uM PIP2; form screened (neutral or TFA salt)
Sequence of PI3Kdelta (O00329 whole entry, canonical isoform): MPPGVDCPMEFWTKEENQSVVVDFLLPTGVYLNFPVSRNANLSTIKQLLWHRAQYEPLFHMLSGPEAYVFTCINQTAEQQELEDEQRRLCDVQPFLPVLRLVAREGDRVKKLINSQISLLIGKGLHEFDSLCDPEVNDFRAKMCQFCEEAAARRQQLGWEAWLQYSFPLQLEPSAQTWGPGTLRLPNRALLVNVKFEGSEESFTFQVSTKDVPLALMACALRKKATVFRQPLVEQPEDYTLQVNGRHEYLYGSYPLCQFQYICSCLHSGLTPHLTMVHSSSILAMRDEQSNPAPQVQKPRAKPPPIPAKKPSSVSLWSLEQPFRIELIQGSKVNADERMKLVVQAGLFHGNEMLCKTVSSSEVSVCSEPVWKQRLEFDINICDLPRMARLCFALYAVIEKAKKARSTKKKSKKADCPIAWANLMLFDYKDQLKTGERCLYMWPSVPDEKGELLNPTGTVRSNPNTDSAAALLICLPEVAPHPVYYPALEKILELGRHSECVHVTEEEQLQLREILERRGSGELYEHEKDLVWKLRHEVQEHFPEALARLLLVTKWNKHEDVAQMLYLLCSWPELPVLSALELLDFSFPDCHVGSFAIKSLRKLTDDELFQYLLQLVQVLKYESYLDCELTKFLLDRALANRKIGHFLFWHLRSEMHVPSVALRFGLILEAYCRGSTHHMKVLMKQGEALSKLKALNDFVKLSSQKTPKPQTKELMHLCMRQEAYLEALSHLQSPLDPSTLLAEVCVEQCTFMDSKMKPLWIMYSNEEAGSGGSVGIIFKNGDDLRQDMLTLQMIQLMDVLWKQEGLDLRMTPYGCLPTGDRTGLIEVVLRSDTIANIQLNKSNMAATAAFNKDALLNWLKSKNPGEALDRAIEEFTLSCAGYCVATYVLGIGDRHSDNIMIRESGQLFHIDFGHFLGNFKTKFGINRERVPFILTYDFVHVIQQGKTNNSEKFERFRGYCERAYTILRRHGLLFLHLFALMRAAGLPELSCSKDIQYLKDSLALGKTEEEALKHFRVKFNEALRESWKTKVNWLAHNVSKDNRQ
Sequence of PI3Kdelta (P27986 whole entry partner, canonical isoform): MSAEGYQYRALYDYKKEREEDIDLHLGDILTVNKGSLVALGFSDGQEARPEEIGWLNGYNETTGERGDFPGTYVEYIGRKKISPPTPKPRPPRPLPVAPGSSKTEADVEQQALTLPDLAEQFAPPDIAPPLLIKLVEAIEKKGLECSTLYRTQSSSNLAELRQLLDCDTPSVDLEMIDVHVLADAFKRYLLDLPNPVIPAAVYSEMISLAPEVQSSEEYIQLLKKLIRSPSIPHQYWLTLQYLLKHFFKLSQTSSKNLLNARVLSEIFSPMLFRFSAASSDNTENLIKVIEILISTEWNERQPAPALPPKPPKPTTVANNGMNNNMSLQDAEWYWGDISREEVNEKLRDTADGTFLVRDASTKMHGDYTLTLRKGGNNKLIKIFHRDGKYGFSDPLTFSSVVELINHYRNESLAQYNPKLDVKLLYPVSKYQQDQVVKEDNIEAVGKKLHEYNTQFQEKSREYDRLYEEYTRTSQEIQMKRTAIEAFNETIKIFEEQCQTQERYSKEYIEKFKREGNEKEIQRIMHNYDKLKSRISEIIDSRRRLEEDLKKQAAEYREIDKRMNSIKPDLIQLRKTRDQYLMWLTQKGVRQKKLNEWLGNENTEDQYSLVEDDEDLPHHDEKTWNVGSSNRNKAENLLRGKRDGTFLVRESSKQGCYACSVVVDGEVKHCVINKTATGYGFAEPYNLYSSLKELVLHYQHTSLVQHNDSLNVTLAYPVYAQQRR

Sequence of PI3Kalpha (P42336 whole entry, canonical isoform): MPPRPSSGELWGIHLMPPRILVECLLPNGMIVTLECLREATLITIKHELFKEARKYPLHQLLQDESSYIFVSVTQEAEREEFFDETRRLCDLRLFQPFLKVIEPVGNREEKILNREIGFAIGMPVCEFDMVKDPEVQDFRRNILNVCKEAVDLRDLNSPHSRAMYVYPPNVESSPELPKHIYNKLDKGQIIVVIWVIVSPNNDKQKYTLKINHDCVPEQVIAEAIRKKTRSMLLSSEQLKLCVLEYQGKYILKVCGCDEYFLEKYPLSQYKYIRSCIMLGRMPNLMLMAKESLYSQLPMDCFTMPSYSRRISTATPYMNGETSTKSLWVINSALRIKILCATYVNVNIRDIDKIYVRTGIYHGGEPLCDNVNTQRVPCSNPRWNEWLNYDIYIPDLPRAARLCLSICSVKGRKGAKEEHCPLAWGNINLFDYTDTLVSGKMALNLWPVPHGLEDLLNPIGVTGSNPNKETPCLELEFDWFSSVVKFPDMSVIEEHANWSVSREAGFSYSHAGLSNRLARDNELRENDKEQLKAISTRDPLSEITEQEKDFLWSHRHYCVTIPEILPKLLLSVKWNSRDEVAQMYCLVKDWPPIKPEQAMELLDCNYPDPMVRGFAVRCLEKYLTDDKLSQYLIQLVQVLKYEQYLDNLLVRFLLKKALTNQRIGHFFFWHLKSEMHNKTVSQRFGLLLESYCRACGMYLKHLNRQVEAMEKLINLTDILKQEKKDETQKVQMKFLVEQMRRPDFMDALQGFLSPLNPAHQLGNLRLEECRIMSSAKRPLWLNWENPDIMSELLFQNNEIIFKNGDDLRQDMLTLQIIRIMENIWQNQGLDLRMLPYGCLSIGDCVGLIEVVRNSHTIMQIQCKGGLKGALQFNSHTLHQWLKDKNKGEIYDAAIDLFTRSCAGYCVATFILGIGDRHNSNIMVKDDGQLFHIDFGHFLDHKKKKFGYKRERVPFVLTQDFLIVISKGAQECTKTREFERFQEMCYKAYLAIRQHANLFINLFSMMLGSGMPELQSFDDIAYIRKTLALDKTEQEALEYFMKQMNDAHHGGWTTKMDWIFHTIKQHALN
Sequence of PI3Kalpha (P27986 whole entry partner, canonical isoform): as the sequence (P27986 whole entry partner, canonical isoform) above

| Relative Selectivity versus PI3Kalpha (PI3Kalpha) | IC50 (PI3Kdelta) [nM] | Structure (SMILES) |
| --- | --- | --- |
| 8 | 1570 | CCn1c(-c2cnc(C)nc2)nc2c(-c3ccc4c(c3)C(C)(N[C@H]3C[C@H](OC)C3)C(=O)N4)ncnc21 (single isomer, unassigned) [Compound 2-82, 5-(9-ethyl-8-(2-methylpyrimidin-5-yl)-9H-purin-6-yl)-3-(((1R,3R)-3-methoxycyclobutyl)amino)-3(R or S)-methylindolin-2-one] |
| >10 | 21 | CCn1c(-c2cnc(C)nc2)nc2c(-c3ccc4c(c3)C(C)(N[C@H]3C[C@H](OC)C3)C(=O)N4)ncnc21 (single isomer, unassigned) [Compound 2-83, 5-(9-ethyl-8-(2-methylpyrimidin-5-yl)-9H-purin-6-yl)-3-(((1R,3R)-3-methoxycyclobutyl)amino)-3(R or S)-methylindolin-2-one] |
| >10 | 63 | CCn1c(-c2cnc(C)nc2)nc2c(-c3ccc4c(c3)C3(CCN(C(=O)C5CC5)C3)C(=O)N4)ncnc21 (single isomer, unassigned) [Compound 3-5, (R or S)-1′-(cyclopropanecarbonyl)-5-(9-ethyl-8-(2-methylpyrimidin-5-yl)-9H-purin-6-yl)spiro[indoline-3,3′-pyrrolidin]-2-one] |
| >10 | 26 | CCn1c(-c2cnc(C)nc2)nc2c(-c3ccc4c(c3)C3(CCN(C(=O)C5CC5)C3)C(=O)N4)ncnc21 (single isomer, unassigned) [Compound 3-6, (R or S)-1′-(cyclopropanecarbonyl)-5-(9-ethyl-8-(2-methylpyrimidin-5-yl)-9H-purin-6-yl)spiro[indoline-3,3′-pyrrolidin]-2-one] |
| >10 | 5 | CCN1C(=O)C2(CCCN2C(=O)C2CC2)c2cc(-c3ncnc4c3nc(-c3cnc(C)nc3)n4CC)ccc21 (single isomer, unassigned) [Compound 3-9, (R or S)-1′-(cyclopropanecarbonyl)-1-ethyl-5-(9-ethyl-8-(2-methylpyrimidin-5-yl)-9H-purin-6-yl)spiro[indoline-3,2′-pyrrolidin]-2-one] |
| >10 | 3 | CCn1c(-c2cnc(C)nc2)nc2c(-c3ccc4c(c3)C3(CCCN3C(=O)C3CC3)C(=O)N4C(C)C)ncnc21 (single isomer, unassigned) [Compound 3-10, (R or S)-1′-(cyclopropanecarbonyl)-5-(9-ethyl-8-(2-methylpyrimidin-5-yl)-9H-purin-6-yl)-1-isopropylspiro[indoline-3,2′-pyrrolidin]-2-one] |
| >10 | 45 | Cc1ncc(-c2nc3c(-c4ccc5c(c4)C4(CCCN4C(C)C)C(=O)N5)ncnc3n2C)cn1 (single isomer, unassigned) [Compound 3-13, (R or S)-1′-isopropyl-5-(9-methyl-8-(2-methylpyrimidin-5-yl)-9H-purin-6-yl)spiro[indoline-3,2′-pyrrolidin]-2-one] |
| >10 | 2 | Cc1ncc(-c2nc3c(-c4ccc5c(c4)C4(CCCN4C(C)C)C(=O)N5)ncnc3n2C)cn1 (single isomer, unassigned) [Compound 3-14, (R or S)-1′-isopropyl-5-(9-methyl-8-(2-methylpyrimidin-5-yl)-9H-purin-6-yl)spiro[indoline-3,2′-pyrrolidin]-2-one] |
| >10 | 5 | CCn1c(C(F)F)nc2c(-c3ccc4c(c3)C3(CCCN3C(=O)C3CC3)C(=O)N4)ncnc21 (single isomer, unassigned) [Compound 3-15, (R or S)-1′-(cyclopropanecarbonyl)-5-(8-(difluoromethyl)-9-ethyl-9H-purin-6-yl)spiro[indoline-3,2′-pyrrolidin]-2-one] |
